Laboratory results as given in US4775695A, “Substituted amidinoalkoxy and amidinoalkylamino indanones and salts thereof” (Merck & Co., Inc., priority 1987, dated 1988).
pIC50: −log10 of the molar value. Counter-ions that a name gives are not always drawn.

Tested on: cerebrocortical cat brain tissue slices
Assay: In vitro Cerebrocortical Cat Brain Tissue Slice Assay (inhibition of HCO3^- -stimulated swelling)
Settings: 60 minutes, 37° C., 10 mM HCO3^-, 27 mM K^+
Experimental: See, e.g., Bourke et al., Neurochem. Res., 8, 5 (1983), and Cragoe et al., J. Med. Chem., 25, 567 (1982).
Adult cats of 2-3 kg body weight were employed in tissue slice studies. Prior to sacrifice, the animals were anesthetized with ketamine hydrochloride, 10 mg/kg intramuscularly. Eight (three control, five experimental) pial surface cerebrocortical tissue slices (0.5 mm thick; approximately 150 mg initial fresh weight) were cut successively with a calibrated Stadie-Riggs fresh tissue microtome without moistening and weighed successively on a torsion balance. During the slice preparation all operations except weighing were confined to a humid chamber. Each slice was rapidly placed in an individual Warburg flask containing 2 ml of incubation medium at room temperature. The basic composition of the incubation media was as follows: glucose, 10 mM; CaCl2, 1.3 mM; MgSO4, 1.2 mM; KHSO4, 1.2 mM; HEPES (N-2-hydroxyethylpiperazine-N'-2-ethanesulfonic acid, titrated with NaOH to pH 7.4), 20 mM. Except when adding HCO3^-, the osmolarity of the media was maintained isosmotic (approximately 285 mOsm/L) by reciprocal changes of Na^+ or K^+ to achieve a concentration of K^+ of 27 mM. The basic medium was saturated with oxygen by bubbling pure oxygen through the solution for 30 minutes before use. […]
Following the 60-minute incubation period, tissue slices were separated from incubation medium by filtration, reweighed, and homogenized in 1N HClO4 (10% w/v) for electrolyte analysis. […] Control slice swelling is expressed as microliters per gram initial preswelling fresh weight. The effectiveness of an inhibitor at a given concentration was measured by the amount of HCO3^- -stimulated swelling that occurred in its presence, computed as a percent of the maximum possible and is reported as an IC50. […] Tissue and media Na^+ and K^+ levels were determined by emission flame photometry with Li^+ internal standard; Cl^- levels were determined by amperometric titration. Tissue viability during incubation is monitored by manometry.

| Structure (SMILES) | pIC50 (hydrate) | pIC50 (Felis catus, 1 h) |
| --- | --- | --- |
| CC1(C2CCCC2)Cc2cc(OCC(=N)N)c(Cl)c(Cl)c2C1=O (single isomer, unassigned; (-)) [Example 7, (-)[(2-Cyclopentyl-6,7-dichloro-2,3-dihydro-2-methyl-1-oxo-1H-inden-5-yl)oxy]ethanimidamide hydrochloride 1/4 hydrate] | 8.30 |  |
| CC1(C2CCCC2)Cc2cc(OCC(=N)N)c(Cl)c(Cl)c2C1=O (stereo not drawn) [Example 2, [(2-Cyclopentyl-6,7-dichloro-2,3-dihydro-2-methyl-1-oxo-1H-inden-5-yl)oxy]ethanimidamide hydrochloride hemihydrate] |  | 8.00 |
| CC1(C2CCCC2)Cc2cc(OCC(=N)N)c(Cl)c(Cl)c2C1=O (single isomer, unassigned; (+)) [Example 6, (+)[(2-Cyclopentyl-6,7-dichloro-2,3-dihydro-2-methyl-1-oxo-1H-inden-5-yl)oxy]ethanimidamide hydrochloride 1/4 hydrate] | 7.00 |  |
